Source: patent US20260263624A1, “COMBINATION OF ANTIBODY-DRUG CONJUGATE AND CANCER THERAPY, AND USE THEREOF” (GENEQUANTUM HEALTHCARE (SUZHOU) CO., LTD., priority 2023, published 2026)

Assays:
[1] = system: HCC1954 cells (breast cancer HER2-high CDX model); assay: In vivo efficacy of GQ01 with chemotherapies in human breast cancer CDX model, HCC1954 (Example 6); set-up: species or system BALB/c nude mice; settings: GQ01 2 mg/kg single dose, paclitaxel 10 mg/kg BIW 4 doses, combination 2 + 10 mg/kg, trastuzumab 5 + pertuzumab 5 (single dose) + paclitaxel 10 mg/kg; for TGI (%): day 32; for Tumor volume (mm^3), Mean ± SEM: end day (day 32)
Method: I. HCC1954 cells in exponential growth stage were collected and counted for tumor inoculation. 0.2 mL of matrix gel buffer (PBS: Matrigel=1:1) was used to subcutaneously inject 1×10^6 cells into the right flank of SPF female BALB/c nude mice aged 6-8 weeks.
(§1) II. 9 days after inoculation, the tumor diameter was measured with a caliper and the tumor volume was calculated according to the formula V=0.5 a×b2 (wherein a is the long diameter of the tumor and b is the short diameter of the tumor). […] Each group included 6 mice. The day of first administration was defined as day 0. […] The tumor volume of mice in each group was measured twice a week.

[2] = system: BT-474 cells (breast cancer HER2-high CDX model); assay: In vivo efficacy of GQ01 with chemotherapies in human breast cancer CDX model, BT-474 (Example 5); set-up: species or system BALB/c nude mice; settings: GQ01 5 mg/kg single dose, paclitaxel 10 mg/kg BIW 4 weeks, combination 5 + 10 mg/kg; for TGI (%): day 25; for Tumor volume (mm^3), Mean ± SEM: end day (day 25)
Method: I. Breast cancer tumor cells were passaged in vivo from BT-474 cells (ATCC, Lot #HTB-20). The cells in exponential growth stage were collected and counted for tumor inoculation. 0.2 mL of matrix gel buffer (PBS: Matrigel=1:1) was used to subcutaneously inject 2×10^6 cells into the right flank of SPF female BALB/c nude mice aged 6-8 weeks. Four days before cell inoculation, BALB/c nude mice had been subcutaneously inoculated with estrogen tablet.
as §1, with “10” for “9”

SMILES: CC(=O)O[C@H]1C(=O)[C@@]2(C)[C@H]([C@H](OC(=O)c3ccccc3)[C@]3(O)C[C@H](OC(=O)[C@H](O)[C@@H](NC(=O)c4ccccc4)c4ccccc4)C(C)=C1C3(C)C)[C@]1(OC(C)=O)CO[C@@H]1C[C@@H]2O [Paclitaxel, paclitaxel]
- TGI (%) [1]: 26.60%
- TGI (%) ([1]; listed as paclitaxel): 26.60%
- Tumor volume (mm^3), Mean ± SEM [1]: 1,219 ± 124 mm^3
- Tumor volume (mm^3), Mean ± SEM ([1]; listed as paclitaxel): 1219 mm^3
- TGI (%) [2]: 58.54%
- TGI (%) ([2]; listed as paclitaxel): 58.54%
- Tumor volume (mm^3), Mean ± SEM [2]: 520 ± 87 mm^3
- Tumor volume (mm^3), Mean ± SEM ([2]; listed as paclitaxel): 520 mm^3
